Patent US11312727B1, “Macrocyclic flu endonuclease inhibitors” (Janssen BioPharma, Inc., priority 2018, dated 2022)
pEC50: −log10 of the molar value. Where two headings read alike, the source gives them in different places.

Legend:
[1] = in vitro; conditions: human, CC50, uninfected A549 cells, CellTiter-Glo
[2] = system: Influenza strain A549 A/WSN/33 (H1N1); experiment: microbe, parasite or virus in culture; type: cell-based; conditions: A549 cells, influenza A/WSN/33 (H1N1), 20 hours incubation, read-out: A549_A(H1N1) EC50

SMILES | CC50 [1] [nM] | pEC50 ([2]; Influenza A virus, A549, 20 h) | pEC50 [2]
O=C1c2c(O)c(=O)ccn2N2CN1C/C=C\COc1c(ccc(Cl)c1Cl)[C@H]2c1ccccc1 (single isomer, unassigned) [Compound 103A, (18*R,Z)-3,4-dichloro-12-hydroxy-18-phenyl-6,9-dihydro-18H-10,17-methanobenzo[b]pyrido[1,2-f][1]oxa[5,6,9]triazacyclotridecine-11,13-dione] | > 200 | < 7.00 | 
O=C1c2c(O)c(=O)ccn2N2CN1CCC=CCOc1c(F)cccc1[C@@H]2c1ccccc1 (single isomer, unassigned) [Compound 84B, (19*S, E/Z)-4-fluoro-13-hydroxy-19-phenyl-9,10-dihydro-6H,19H-11,18-methanopyrido[2,1-i][1,7,10,11]benzoxatriazacyclotetradecine-12,14-dione] | > 200 | 8.30 | 
O=C1c2c(O)c(=O)ccn2N2CN1C/C=C\COc1c(F)cccc1[C@@H]2c1cccc(F)n1 (single isomer, unassigned) [Compound 104A, (18*R,*Z)-4-fluoro-18-(6-fluoropyridin-2-yl)-12-hydroxy-6,9-dihydro-18H-10,17-methanobenzo[b]pyrido[1,2-f][1]oxa[5,6,9]triazacyclotridecine-11,13-dione] | > 200 | 7.97 | 
O=C1c2c(O)c(=O)ccn2N2CN1C/C=C/COc1cccc3c1[C@H]2c1ccccc1S(=O)(=O)C3 [Compound 82, (17aS,E)-12-hydroxy-2,6,9,17a-tetrahydro-3,4-(epiprop[1]en[1]yl[3]ylidene)-10,17-methanobenzo[6,7]thiepino[4,5-c]pyrido[1,2-f][1]oxa[5,6,9]triazacyclotridecine-11,13-dione 1,1-dioxide] | > 1000 | 7.15 | 
O=C1c2c(O)c(=O)ccn2N2CN1C[C@H]1C[C@@H]1COc1c(ccc(F)c1F)[C@@H]2c1ccccc1 (single isomer, unassigned) [Compound 139AA, (1a*S,8*S,17a*S)-4,5-difluoro-14-hydroxy-8-phenyl-1a,2,17,17a-tetrahydro-1H,8H-9,16-methanobenzo[b]cyclopropa[k]pyrido[1,2-f][1]oxa[5,6,9]triazacyclotridecine-13,15-dione] | 26900 | 5.08 | 
CC[C@H]1/C=C/COc2c(F)cccc2[C@@H](c2ccccn2)N2CN1C(=O)c1c(O)c(=O)ccn12 (single isomer, unassigned) [Compound 154AB, (9*S,18*S,*E)-9-ethyl-4-fluoro-12-hydroxy-18-(pyridin-2-yl)-6,9-dihydro-18H-10,17-methanobenzo[b]pyrido[1,2-f][1]oxa[5,6,9]triazacyclotridecine-11,13-dione] | > 100 | < 7.30 | 
CC[C@H]1CCCOc2c(ccc(F)c2F)[C@@H](c2ccccc2)N2CN1C(=O)c1c(O)c(=O)ccn12 (single isomer, unassigned) [Compound 164A, (9*S,18*R)-9-ethyl-3,4-difluoro-12-hydroxy-18-phenyl-6,7,8,9-tetrahydro-18H-10,17-methanobenzo[b]pyrido[1,2-f][1]oxa[5,6,9]triazacyclotridecine-11,13-dione] | > 100 | < 7.30 | 
O=C1c2c(O)c(=O)ccn2N2CN1CC/C=C/COc1c(ccc(F)c1F)[C@@H]2c1ccccc1 (single isomer, unassigned) [Compound 112A, (2*S,E)-33,34-difluoro-15-hydroxy-2-phenyl-12,13,14,16-tetrahydro-11H-4-oxa-1(1,3)-pyrido[2,1-f][1,2,4]triazina-3(1,2)-benzenacyclononaphan-6-ene-14,16-dione] | > 200 | 8.42 | 
O=C1c2c(O)c(=O)ccn2N2CN1CCCCOc1ccc(F)cc1[C@H]2c1ccccc1 (single isomer, unassigned) [Compound 30A, (18*R)-2-fluoro-12-hydroxy-18-phenyl-6,7,8,9-tetrahydro-18H-10,17-methanobenzo[b]pyrido[1,2-f][1]oxa[5,6,9]triazacyclotridecine-11,13-dione] | > 2000 | < 6.00 | 
O=C1c2c(O)c(=O)ccn2N2CN1CCCCCOc1cccc3c1[C@H]2c1ccccc1SC3 (single isomer, unassigned) [Compound 48A] | > 2000 |  | < 6.00
CC[C@H]1/C=C/COc2c(F)cccc2[C@@H](c2ccccc2)N2CN1C(=O)c1c(O)c(=O)ccn12 (single isomer, unassigned) [Compound 85AA, (9*S,18*R,E)-9-ethyl-4-fluoro-12-hydroxy-18-phenyl-6,9-dihydro-18H-10,17-methanobenzo[b]pyrido[1,2-f][1]oxa[5,6,9]triazacyclotridecine-11,13-dione] | > 200 | 8.52 | 
CC[C@@H]1/C=C/COc2c(ccc(F)c2F)[C@@H](c2ccccn2)N2CN1C(=O)c1c(O)c(=O)ccn12 (single isomer, unassigned) [Compound 160AB, (9*R,18*S,*E)-9-ethyl-3,4-difluoro-12-hydroxy-18-(pyridin-2-yl)-6,9-dihydro-18H-10,17-methanobenzo[b]pyrido[1,2-f][1]oxa[5,6,9]triazacyclotridecine-11,13-dione] | > 100 | 8.55 | 
O=C1c2c(O)c(=O)ccn2N2CN1CCCCCOc1cccc3c1[C@@H]2c1ccccc1SC3 (single isomer, unassigned) [Compound 48B] | > 2000 |  | 7.57
CC[C@@H]1/C=C/COc2c(ccc(Cl)c2Cl)[C@H](c2ccccc2)N2CN1C(=O)c1c(O)c(=O)ccn12 (single isomer, unassigned) [Compound 121BA, (9*R,18*S,*E)-3,4-dichloro-9-ethyl-12-hydroxy-18-phenyl-6,9-dihydro-18H-10,17-methanobenzo[b]pyrido[1,2-f][1]oxa[5,6,9]triazacyclotridecine-11,13-dione] | > 200 | 8.55 | 
O=C1c2c(O)c(=O)ccn2N2CN1C1(/C=C/COc3cccc4c3[C@H]2c2ccccc2SC4)CC1 (single isomer, unassigned) [Compound 107B, (17a′*S,*E)-12′-hydroxy-2′,17a′-dihydro-6′H-spiro[cyclopropane-1,9′-[3,4](epiprop[1]en[1]yl[3]ylidene)[10,17]methanobenzo[6,7]thiepino[4,5-c]pyrido[1,2-f][1]oxa[5,6,9]triazacyclotridecine]-11′,13′-dione] | > 100 | 9.00 | 
CC[C@H]1/C=C/COc2cc(Cl)ccc2[C@H](c2ccccc2)N2CN1C(=O)c1c(O)c(=O)ccn12 (single isomer, unassigned) [Compound 97BB] | > 1000 | < 6.30 | 
O=C1c2c(O)c(=O)ccn2N2CN1CCCCCCc1ccccc1C2c1ccccc1 (stereo not shown) [Compound 2, 15-hydroxy-2-phenyl-12,13,14,16-tetrahydro-11H-1(1,3)-pyrido[2,1-f][1,2,4]triazina-3(1,2)-benzenacyclononaphane-14,16-dione] | > 20000 | 6.45 | 
COC[C@H]1/C=C/COc2c(ccc(F)c2F)[C@H](c2ccccc2)N2CN1C(=O)c1c(O)c(=O)ccn12 (single isomer, unassigned) [Compound 153AB, (9*R,18*S,*E)-3,4-difluoro-12-hydroxy-9-(methoxymethyl)-18-phenyl-6,9-dihydro-18H-10,17-methanobenzo[b]pyrido[1,2-f][1]oxa[5,6,9]triazacyclotridecine-11,13-dione] | > 100 | < 7.30 | 
O=C1c2c(O)c(=O)ccn2N2CN1C1(/C=C/COc3cc(F)c(F)c4c3[C@@H]2c2ccccc2SC4)CCC1 (single isomer, unassigned) [Compound 159A, (17a′*R,*E)-24′,25′-difluoro-12′-hydroxy-2′,17a′-dihydro-6′H-spiro[cyclobutane-1,9′-[3,4](epiprop[1]en[1]yl[3]ylidene)[10,17]methanobenzo[6,7]thiepino[4,5-c]pyrido[1,2-f][1]oxa[5,6,9]triazacyclotridecine]-11′,13′-dione] | > 100 | < 7.30 | 
O=C1c2c(O)c(=O)ccn2N2CN1C/C=C\COc1cccc3c1[C@H]2c1ccccc1CC3 (single isomer, unassigned) [Compound 33A, (19b*R,Z)-4-hydroxy-7,10,15,19b-tetrahydro-14H-13,12-(epiprop[1]en[1]yl[3]ylidene)-6,20-methanobenzo[3,4]cyclohepta[1,2-c]pyrido[1,2-f][1]oxa[5,6,9]triazacyclotridecine-3,5-dione] | > 2000 | < 6.00 | 
COC[C@H]1/C=C/COc2ccccc2[C@@H](c2ccccc2)N2CN1C(=O)c1c(O)c(=O)ccn12 (single isomer, unassigned) [Compound 150A, (9*R,18*R,*E)-12-hydroxy-9-(methoxymethyl)-18-phenyl-6,9-dihydro-18H-10,17-methanobenzo[b]pyrido[1,2-f][1]oxa[5,6,9]triazacyclotridecine-11,13-dione] | > 100 | 8.05 | 
CC[C@@H]1/C=C/COc2c(F)cccc2[C@@H](c2ccccn2)N2CN1C(=O)c1c(O)c(=O)ccn12 (single isomer, unassigned) [Compound 154AA, (9*R,18*S,*E)-9-ethyl-4-fluoro-12-hydroxy-18-(pyridin-2-yl)-6,9-dihydro-18H-10,17-methanobenzo[b]pyrido[1,2-f][1]oxa[5,6,9]triazacyclotridecine-11,13-dione] | > 100 | < 7.30 | 
C/C1=C/COc2ccccc2[C@H](c2ccccc2)N2CN(C1)C(=O)c1c(O)c(=O)ccn12 (single isomer, unassigned) [Compound 38B, (18*S,Z)-12-hydroxy-8-methyl-18-phenyl-6,9-dihydro-18H-10,17-methanobenzo[b]pyrido[1,2-f][1]oxa[5,6,9]triazacyclotridecine-11,13-dione] | > 2000 | 7.59 | 
